Read-outs that look alike come from different tables or passages of the source.
Assays:
S. Typhimurium ATCC14028 [1] = assay: Static peg assay for prevention of biofilm formation (Calgary device, crystal violet); assay type: cell-based, Salmonella Typhimurium
Procedure, shortened: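 Calgary 96-peg device, ca. 10^6 cells of ATCC14028 per well in TSB 1/20 for 24 h at 25° C (or 48 h at 16° C, medium and compound renewed at 24 h), or in CFA broth for 24 h at 37° C, static, with two-fold compound dilutions. Crystal violet stain, acetic acid extraction, OD570. IC50 from 2–3 independent experiments.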

[2] = tested on: Salmonella Typhimurium ATCC 14028; assay: Antibacterial activity: growth inhibition, OD600 after 24 h (GIC50); assay type: cell-based
Protocol: Evaluation of antibacterial-inhibitory activity of some substituted 2-amino-1H-imidazoles of the invention was carried out by diluting an overnight culture of Salmonella Typhimurium ATCC 14028 into a liquid medium. 200 μl of the diluted overnight culture was added to each well of a microtiter plate together with different concentrations of the test compound (1/2 dilution series of the compound). After an incubation of 24 hours the optical density at 600 nm of each well was determined with a microtiter plate reader.
Starting from a 40 mM stock solution of each compound in DMSO, two-fold serial dilutions in 100 μl liquid broth per well were prepared in dublicate in sterile transparant microtiter plates. The broth used was TSB 1/20 for measurements at 25° C. and CFA (in case of Salmonella Typhimurium) and LBNS (in case of Pseudomonas aeruginosa) for measurements at 37° C. Subsequently an overnight culture of the bacteria (S. Typhimurium ATCC14028 or P. aeruginosa PA14) was diluted 1/200 into the corresponding liquid broth and 100 μl was added to each well of the microtiterplate resulting in a total amout of 200 μl medium per well. After an incubation of 24 hours the optical density at 600 nm of each well was determined with a microtiter plate reader (VERSAmax, Molecular Devices).
Evaluation of antibacterial-inhibitory activity of some substituted imidazo[1,2-a]pyrimidinium bromide salts of the invention was carried out by diluting an overnight culture of Salmonella Typhimurium ATCC14028 or Pseudomonas aeruginosa PA141/200 into liquid medium. 200 μl of the diluted overnight culture was added to each well of a microtiterplate together with different concentrations of the test compound (1/2 dilution series of the compound). After an incubation of 24 hours the optical density at 600 nm of each well was determined with a microtiter plate reader.

[3] = tested on: Pseudomonas aeruginosa PA14; assay: Static peg assay for prevention of biofilm formation (Calgary device, crystal violet); assay type: cell-based
Procedure, shortened: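 P. aeruginosa PA14 overnight TSB culture diluted 1:100 into broth with two-fold compound dilutions, biofilms grown 24 h static on polystyrene pegs of a Calgary device at 25 °C (TSB 1/20), 30 °C or 37 °C (CFA and/or LBNS). Biofilm quantified by crystal violet, extracted with 30% acetic acid, A570.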

S. Typhimurium ATCC14028 [4] = assay: Bioscreen assay: influence on planktonic growth curve; assay type: cell-based, Salmonella Typhimurium; conditions: 40 μM; for Effect on growth at: 40 μM (S. Typhimurium): planktonic growth, 25° C.
Excerpt: (§1) Some of the tested compounds show a concentration range in which biofilm formation is inhibited but no effect on planktonic growth is observed. These compounds are particularly interesting for prevention of biofilm formation since the development of resistance against these compounds is less likely. Table 8 indicates whether the different compounds have an effect on the planktonic growth of the bacteria at the IC50 for biofilm inhibition. To construct Table 8, the effect of the tested compounds on the growth curve of the bacteria was determined at a concentration equal to the IC50 for biofilm inhibition, by using the Bioscreen system available from Oy Growth Curves Ab Ltd). The Bioscreen device from Oy Growth Curves Ab Ltd was used for measuring the influence of the chemical compounds on the planktonic growth of Salmonella Typhimurium and Pseudomonas aeruginosa. The Bioscreen is a computer controlled incubator/reader/shaker that uses 10×10 well microtiter plates and measures light absorbance of each well at a specified wave length in function of time. An overnight culture of S. […] The broth used was TSB 1/20 for the experiments at 16° C. and 25° C. For experiments at 37° C. CFA medium was used for S. […] As a control 3 μl of the appropriate solvent (DMSO or EtOH) was also added to the plate in 3- or 4-fold. The microtiter plate was incubated in the Bioscreen device at 16° C., 25° C. or 37° C. for at least 36 hours, with continious medium shaking. The absorbance of each well was measured at 600 nm each 15 minutes. Excel was used to generate the growth curves for treated the treated wells and the untreated control wells. Some of the compounds show a concentration range in which biofilm formation is inhibited but no effect on the planktonic growth is observed. Table 14 indicates if the different compounds have an effect on the planktonic growth of the bacteria at the IC50 for biofilm inhibition. To construct this table the effect of the compounds on the growth curve of the bacteria was determined at a concentration equal to the IC50 for biofilm inhibtion, by using the Bioscreen system from Oy Growth Curves Ab Ltd.

S. Typhimurium ATCC14028 [5] = assay: as above; assay type: cell-based, Salmonella Typhimurium; set-up: key: x: no influence on the planktonic growth at the IC50 for biofilm inhibition; ∘: planktonic growth is retarded at the IC50 for biofilm inhibition; conditions: planktonic growth at the IC50 for biofilm inhibition, 25° C.
Excerpt: as §1

[6] = S. Typhimurium ATCC 14028, 25° C., read-out: IC50 for biofilm inhibition (25° C.)
[7] = OD600 after 24 hours of growth, read-out: GIC(50)
[8] = 25° C., Table 11, read-out: IC50 (biofilm formation)
[9] = 25° C., Table 14, read-out: IC50 biofilm inhibition
[10] = 25° C., Table 19, read-out: IC50 (biofilm formation)
[11] = S. Typhimurium ATCC 14028, 25° C., read-out: S. Typhimurium IC50 (biofilm formation)
[12] = P. aeruginosa PA14, 25° C., read-out: P. aeruginosa IC50 (biofilm formation)
[13] = 25° C., Table 22, read-out: S. Typhimurium IC50 (biofilm formation)
[14] = 25° C., Table 22, read-out: P. aeruginosa IC50 (biofilm formation)

Molecule `Clc1ccc(-c2c[nH]c(NC3CCCC3)n2)cc1Cl` has an IC50 (S. Typhimurium ATCC14028 [1]; [6]) of 6 µM, an IC50 [2, 7] of 50 µM and an IC50 ([3]; P. aeruginosa PA14, 25° C., read-out: IC50 for biofilm inhibition (25° C.)) of 1 µM.

In the case of `OC1(c2ccc(Cl)cc2)C[n+]2cccnc2N1C1CC1` (stereo not shown) [Compound 61], the IC50 (S. Typhimurium ATCC14028 [1]; [8]) is reported as 120 µM, the IC50 (S. Typhimurium ATCC14028 [1]; [9]) is reported as 120 µM and the IC50 (S. Typhimurium ATCC14028 [1]; 25° C., Table 18, read-out: S. Typhimurium IC50 (biofilm formation)) is reported as 82.7 µM. It also gave an IC50 ([2]; 25° C.) of 100 to 200 µM and an IC50 ([3]; 25° C., Table 18, read-out: P. aeruginosa IC50 (biofilm formation)) of 179 µM.

With `COc1cccc(CCN2c3nccc[n+]3CC2(O)c2ccc(Cl)c(Cl)c2)c1.[Br-]` (stereo not shown) [Compound 77] the “Effect on growth at 40 μM” value (S. Typhimurium ATCC14028 [4]) was “∘”, the IC50 (S. Typhimurium ATCC14028 [1]; [8]) was 7.39 µM and the IC50 (S. Typhimurium ATCC14028 [1]; [9]) was 7.39 µM. For the same molecule, the IC50 (S. Typhimurium ATCC14028 [1]; [10]) was 7.23 µM and the Influence on growth (S. Typhimurium ATCC14028 [5]) was “x”.

`OC1(c2ccc3c(c2)OCO3)C[n+]2cccnc2N1Cc1ccc2c(c1)OCO2` (stereo not shown) [Compound 80] gave an IC50 (S. Typhimurium ATCC14028 [1]; [8]) of 102 µM, an IC50 (S. Typhimurium ATCC14028 [1]; [9]) of 102 µM and an IC50 (S. Typhimurium ATCC14028 [1]; [10]) of 53.7 µM. The IC50 ([2]; 25° C.) was 100 to 200 µM.

For `Nc1nc(-c2ccc([N+](=O)[O-])cc2)c[nH]1` [Compound 90], the “Effect on growth at: 40 μM (S. Typhimurium)” value (S. Typhimurium ATCC14028 [4]) was “∘”, the IC50 (S. Typhimurium ATCC14028 [1]; [11]) was 17.6 µM and the IC50 [3, 12] was 34.5 µM.

`CCCCCNc1ncc(-c2ccc(Cl)c(Cl)c2)[nH]1` [Compound 110] was tested, and the “Effect on growth at: 40 μM (S. Typhimurium)” value (S. Typhimurium ATCC14028 [4]) was “∘”, the IC50 (S. Typhimurium ATCC14028 [1]; [11]) was 2.2 µM and the IC50 [3, 12] was 0.7 µM.

Work on `Clc1ccc(-c2cnc(NCc3ccccc3)[nH]2)cc1` [Compound 127] yielded an IC50 (S. Typhimurium ATCC14028 [1]; [13]) of 30.7 µM, an IC50 (S. Typhimurium ATCC14028 [1]; [6]) of 31 µM and an IC50 [2, 7] of 100 µM. It also gave an IC50 [3, 14] of 26.3 µM.

In the case of `COc1cccc(CCNc2ncc(-c3ccc(Cl)c(Cl)c3)[nH]2)c1` [Compound 130], the IC50 (S. Typhimurium ATCC14028 [1]; [13]) is reported as > 800 µM and the IC50 [3, 14] is reported as > 800 µM.

`Fc1ccc(-c2cnc(NCc3ccc4c(c3)OCO4)[nH]2)cc1` [Compound 132] showed an IC50 (S. Typhimurium ATCC14028 [1]; [13]) of 66.6 µM, an IC50 (S. Typhimurium ATCC14028 [1]; [6]) of 68 µM and an IC50 [3, 14] of 456 µM.

For `c1ccc2c(-c3cnc(NCc4ccc5c(c4)OCO5)[nH]3)cccc2c1` [Compound 133], the IC50 (S. Typhimurium ATCC14028 [1]; Salmonella enterica, 25° C., Table 22, read-out: S. Typhimurium IC50 (biofilm formation)) was 261 µM and the IC50 ([3]; Pseudomonas aeruginosa, PA14, 25° C., Table 22, read-out: P. aeruginosa IC50 (biofilm formation)) was 10.5 µM.
